Our source for the TGI values is PubChem BioAssay (NCI).

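Following 48 hours of exposure in 96-well plates, responses at five concentrations were used to interpolate endpoints linearly. TGI: concentration producing complete growth inhibition.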

Some test systems named below: DU-145 prostate; HL-60(TB) leukemia; HT29 colon; MCF7 breast; MDA-N; NCI-H522 lung; SF-295 CNS; SNB-19 CNS; TK-10 renal; UACC-62 melanoma.
Holding throughout (assay): growth of human tumour cells (NCI), 48 h

As to `COc1ccc2c(c1)[nH]c1c(/C=C/c3ccccc3)nccc12`, the TGI turned out to be 51.8 µM with DU-145 prostate; 54 µM in the assay on HL-60(TB) leukemia; 33.9 µM with HT29 colon; 41.6 µM with MCF7 breast; 37.2 µM in the assay with MDA-N; 29 µM in the assay with NCI-H522 lung. Besides, the TGI in the assay with SF-295 CNS is 24.2 µM; with SNB-19 CNS, 38.5 µM; in the assay on TK-10 renal it was 39.7 µM; in the assay on UACC-62 melanoma, 28.9 µM.

Consider `O=C(/C=C/c1ccc(O)c(-c2cc(C(=O)/C=C/c3ccc(O)cc3)c(O)cc2O)c1)c1ccc(O)cc1O`, for which the TGI in the assay on DU-145 prostate was over 50 µM; with HL-60(TB) leukemia, over 50 µM; in the assay on HT29 colon it was 22.3 µM; with MCF7 breast, over 50 µM; with MDA-N, over 50 µM; in the assay on NCI-H522 lung it was over 50 µM. For the same molecule, the TGI with SF-295 CNS is over 50 µM; in the assay on SNB-19 CNS it was over 50 µM; in the assay on TK-10 renal, over 50 µM; with UACC-62 melanoma, 20.4 µM.

As to `CNc1ccc2c(c1)[C@@]1(C)c3ccccc3[C@@H](C2)N1C`, the TGI in the assay with DU-145 prostate is over 100 µM; in the assay on HL-60(TB) leukemia, 38.5 µM; with HT29 colon, 64.8 µM; in the assay with MCF7 breast it was over 100 µM; in the assay on MDA-N, 74.7 µM; with NCI-H522 lung it was 37.7 µM. Also, the TGI was over 100 µM in the assay on SF-295 CNS, over 100 µM in the assay with SNB-19 CNS, 86.2 µM in the assay on TK-10 renal and 35.7 µM in the assay on UACC-62 melanoma.

`CC12CC3OC(=O)C1COC14OC5(C2C1=O)C(O)(CCC1C4CC(O)C2(O)CC=CC(=O)C12C)C(=O)OC35C` (stereo not given): the TGI with DU-145 prostate, in the assay with HL-60(TB) leukemia, in the assay with HT29 colon, in the assay with MCF7 breast, in the assay on MDA-N and in the assay with NCI-H522 lung was over 100 µM each time. Moreover, the TGI with SF-295 CNS, in the assay with SNB-19 CNS, in the assay with TK-10 renal and in the assay with UACC-62 melanoma was over 100 µM each time.

With `C[C@H](CCC(=O)O)[C@H]1CC[C@@]2(C)[C@@H]3C(=O)C[C@H]4C(C)(C)[C@@H](O)CC[C@]4(C)[C@H]3C(=O)C[C@]12C`, the TGI with DU-145 prostate, in the assay with HL-60(TB) leukemia, with HT29 colon, in the assay with MCF7 breast, with MDA-N and in the assay on NCI-H522 lung was over 100 µM each time. The TGI in the assay with SF-295 CNS, in the assay on SNB-19 CNS, in the assay on TK-10 renal and in the assay with UACC-62 melanoma was over 100 µM each time.

Regarding `Cc1ccccc1C(=O)N/N=C/c1ccc(Sc2nccn2C)c([N+](=O)[O-])c1`, the TGI in the assay on DU-145 prostate, with HL-60(TB) leukemia, with HT29 colon, in the assay with MCF7 breast, with MDA-N and in the assay on NCI-H522 lung was over 100 µM each time. In addition, the TGI in the assay on SF-295 CNS, in the assay with SNB-19 CNS, in the assay with TK-10 renal and in the assay on UACC-62 melanoma was over 100 µM throughout.

Take `NCCSC(c1ccccc1)c1ccccc1`: the TGI came to 93.5 µM in the assay with DU-145 prostate; 0.793 µM in the assay on HL-60(TB) leukemia; 35.5 µM in the assay on HT29 colon; 38 µM with MCF7 breast; 34.2 µM with MDA-N; 38.4 µM in the assay on NCI-H522 lung. Also, the TGI with SF-295 CNS was 35.7 µM; with SNB-19 CNS, over 100 µM; in the assay on TK-10 renal it was 31.8 µM; in the assay with UACC-62 melanoma, 31.3 µM.

As for `Cc1c(N2C(=O)CS(=O)(=O)C2c2cccc(Oc3ccccc3)c2)c(=O)n(-c2ccccc2)n1C` (stereo not given), the TGI with DU-145 prostate was over 100 µM; in the assay with HL-60(TB) leukemia it was 53.4 µM; in the assay on HT29 colon, over 100 µM; in the assay on MCF7 breast it was over 100 µM; in the assay with MDA-N, 62.6 µM; in the assay with NCI-H522 lung, over 100 µM. Besides, the TGI in the assay with SF-295 CNS was over 100 µM; in the assay with SNB-19 CNS it was over 100 µM; in the assay with TK-10 renal, 47.7 µM; with UACC-62 melanoma, over 100 µM.

For the molecule `CC1=CC(=O)c2ccccc2C1=O`, the TGI stood at 29.4 µM with DU-145 prostate; 5.94 µM with HL-60(TB) leukemia; 34.1 µM with HT29 colon; 23.8 µM with MCF7 breast; 2.37 µM in the assay with MDA-N; 11.7 µM with NCI-H522 lung. In addition, the TGI with SF-295 CNS was 30.3 µM; with SNB-19 CNS, 33.5 µM; in the assay with TK-10 renal, 34.1 µM; in the assay on UACC-62 melanoma, 10.3 µM.

`COc1ccc(C(=O)c2sc(Nc3ccc(Cl)cc3)nc2N)cc1`: the TGI in the assay with DU-145 prostate is over 100 µM; in the assay with HL-60(TB) leukemia, over 100 µM; with HT29 colon it was over 64.9 µM; in the assay on MCF7 breast it was over 100 µM; in the assay on MDA-N, over 22.2 µM; with NCI-H522 lung it was 33.9 µM. The TGI in the assay with SF-295 CNS was 46.7 µM; in the assay on SNB-19 CNS, over 69.9 µM; in the assay with TK-10 renal it was 33.4 µM; in the assay on UACC-62 melanoma it was over 100 µM.
